Laboratory results taken from US9840494B2, “Quinazoline derivative” (Tianjin Hemay Oncology Pharmaceutical Co., Ltd., priority 2013, dated 2017).

Columns and labels:
EGFR (L858R) = target: T1, EGFR (L858R) (Homo sapiens, UniProt P00533, L858R); assay: Inhibitory action on tyrosine kinase activity of mutant EGFR (L858R), Caliper; format: biochemical; details: kinase 9 nM, ATP 111 μM, polypeptide 3 μM, 60 min
T1 construct: purchased Invitrogen Corporation PR7447A
Procedure: EGFR(L858R): Invitrogen Corporation, catalogue No. PR7447A
(§1) P22(polypeptide substrate): GL Biochem Ltd., catalogue No. 112393
(§2) 3.2 Formulation of Kinase Buffer: 50 mM HEPES, pH 7.5, 0.0015% Brij-35, 10 mM MgCl2, and 2 mM DTT(dithiothreitol).
(§3) 3.3 Formulation of Termination Solution: 100 mM HEPES, pH 7.5, 0.015% Brij-35, 0.2% Coating Reagent #3 (prepared by Caliper workstation), and 50 mM EDTA (ethylene diamine tetraacetic acid).
(§4) 3.4.1 Formulation of a 50-fold concentration of a compound: for example, if the final concentration of the compound for assay is 12.5 nM, 50-fold concentration is 625 nM. The 50-fold concentration of the compound working solution was subjected to a 4-fold dilution with DMSO in a 96-well plate to obtain seven diluted concentrations in total.
(§5) 3.4.2 Transferring the 5-fold concentration of compound to a reaction plate: 10 μl solution was transferred from each well of the above-mentioned 96-well plate to another 96-well plate, and then 90 μl kinase buffer was added. 5 μl solution was transferred from the above 96-well plate to a 384-well reaction plate. […]
(§6) 3.6 The substrate conversion rate data was read with Caliper. […]
(§7) Inhibition rate %=(max-conversion rate)/(max-min)x100%, wherein max refers to the conversion rate of the DMSO control, min refers to the conversion of enzyme-free control. IC50 values were determined by the inhibition curve.

EGFR (L858R/T790M) = target: T2, EGFR (L858R/T790M) (Homo sapiens, UniProt P00533, L858R/T790M); assay: Inhibitory action on tyrosine kinase activity of mutant EGFR (L858R/T790M), Caliper; format: biochemical; details: kinase 10 nM, ATP 19 μM, polypeptide 3 μM, 60 min
T2 construct: purchased Invitrogen Corporation PR8911A
T2 sequence (P00533 25-1210 T790M/L858R): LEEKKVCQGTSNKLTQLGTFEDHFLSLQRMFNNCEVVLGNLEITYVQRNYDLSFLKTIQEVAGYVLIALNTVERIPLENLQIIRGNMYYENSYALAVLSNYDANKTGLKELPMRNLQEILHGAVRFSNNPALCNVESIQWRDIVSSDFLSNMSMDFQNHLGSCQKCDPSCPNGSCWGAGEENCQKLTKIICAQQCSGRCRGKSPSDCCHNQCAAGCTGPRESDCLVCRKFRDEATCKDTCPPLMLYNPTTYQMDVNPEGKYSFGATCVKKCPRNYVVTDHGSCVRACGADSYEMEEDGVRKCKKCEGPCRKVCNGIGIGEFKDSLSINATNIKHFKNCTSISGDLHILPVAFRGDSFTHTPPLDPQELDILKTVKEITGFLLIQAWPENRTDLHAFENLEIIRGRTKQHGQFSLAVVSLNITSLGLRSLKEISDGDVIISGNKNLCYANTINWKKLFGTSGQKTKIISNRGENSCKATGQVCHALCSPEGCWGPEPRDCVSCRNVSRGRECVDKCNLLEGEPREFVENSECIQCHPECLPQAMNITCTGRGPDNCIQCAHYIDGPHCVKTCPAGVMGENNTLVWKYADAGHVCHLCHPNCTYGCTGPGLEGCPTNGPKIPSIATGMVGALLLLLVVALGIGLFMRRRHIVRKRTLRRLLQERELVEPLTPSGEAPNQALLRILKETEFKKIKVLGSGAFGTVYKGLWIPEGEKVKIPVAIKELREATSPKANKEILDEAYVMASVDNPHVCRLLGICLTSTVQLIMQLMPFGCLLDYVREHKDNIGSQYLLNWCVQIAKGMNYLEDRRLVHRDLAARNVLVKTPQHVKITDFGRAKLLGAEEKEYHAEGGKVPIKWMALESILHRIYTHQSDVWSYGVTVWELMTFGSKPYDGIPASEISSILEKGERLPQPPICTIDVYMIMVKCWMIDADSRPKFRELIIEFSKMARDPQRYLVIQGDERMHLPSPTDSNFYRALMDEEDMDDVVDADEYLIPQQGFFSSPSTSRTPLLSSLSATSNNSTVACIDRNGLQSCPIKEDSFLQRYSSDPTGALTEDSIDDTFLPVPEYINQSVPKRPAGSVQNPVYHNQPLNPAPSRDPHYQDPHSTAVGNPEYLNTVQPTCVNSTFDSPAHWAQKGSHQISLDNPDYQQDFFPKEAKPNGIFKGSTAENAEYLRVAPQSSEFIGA
Procedure: EGFR(L858R/T790M): Invitrogen Corporation, catalogue No. PR8911A
as §1, §2, §3, §4, §5, §6, §7

[1] = system: human non-small cell lung cancer cell line HCC827; assay: In vitro inhibitory action on human tumor cells, HCC827 (SRB); format: cell-based; details: SRB assay, usually 3 days
Procedure: Human epidermoid carcinoma cell line A431, human non-small cell lung cancer cell line HCC827, head and neck cancer cell lines Fadu and human pancreatic cancer cell line AsPC-1 were purchased from Cell Bank, Chinese Academy of Sciences.
3.2 Cell culture method: cells were cultured in the complete medium at 37° C. under 5% CO2 and saturated humidity until logarithmic growth phase, i.e., adherent cells substantially approach complete confluence, and then collected for subsequent assay. For the adherent cells, they were firstly digested with trypsin/EDTA to detach.
3.3 A certain number of cells were seeded into 96-well cell culture plates (hereinafter referred to as 96-well plates). […] Finally, total cellular protein in the wells was determined using SRB assay, or cell viability was determined with MTT assay.
3.3.1 The cell seeding concentration was determined by cell growth curve assay which completely simulates compound inhibition assay process. […]
3.4 Dilution and addition of compounds: the concentration of DMSO that can be tolerant by the cells was determined by DMSO tolerance assay, and thereby selecting the dilution and addition methods of compounds. The effects of different concentrations of DMSO on cell growth were determined by DMSO tolerance assay. […] Two methods are finally determined as follows. […]

[2] = system: salmonella typhimurium TA97, TA98, TA100, TA1535, and TA102; details: with or without S9; for mutagenicity on TA102 strain: doses of less than and equal to 150 μg/plate; for mutagenicity on TA97 strain: doses of less than and equal to 500 μg/plate; for mutagenicity on TA98, TA100 and TA1535 strains: doses of less than and equal to 1500 μg/plate
Procedure: Direct mutagen 1: Dexon (Dima Technology Inc.; Batch No.: 456-2D)
Indirect mutagen: 2-aminoanthracene, 2-AA (Sigma-Aldrich Inc.; Batch No.: STBB1901V)
Strains: histidine auxotrophic mutants of salmonella typhimurium TA97, TA98, TA100, TA1535, and TA102 (Institute of Laboratory Animal Science, Chinese Academy of Medical Sciences) are cryopreserved in liquid nitrogen.
Bacteria suspension cryopreserved in liquid nitrogen was quickly thawed in a 37° C. water bath. 100 μL bacteria suspension was withdrawn and seeded into 20 mL nutrient broth. After static culture in the dark at 37° C. for 16 h, the bacteria suspension was taken for mutagenicity assay.
The solution was filtered through a 0.22 μm filter membrane. 1.0 mL initial filtrate was discarded during filtrating. Then the filtrated test sample solution (15 mg/mL) was gradiently diluted with DMSO to solutions having the concentrations of 5, 1.5, 0.5 and 0.15 mg/mL.
The solution was filtered through a 0.22 μm filter membrane, 1.0 mL initial filtrate was discarded during filtrating. Then the filtrated test sample solution (15 mg/mL) was gradiently diluted with sterile water for injection to solutions having the concentrations of 5, 1.5, 0.5 and 0.15 mg/mL.
Dexon: an appropriate amount of Dexon was weighed and dissolved in sterile water for injection to obtain a solution with a concentration of 250 μg/mL. The solution was used after being filtered through 0.22 μm sterile filter membrane.
The solution was used after being filtered through 0.22 μm sterile filter membrane.
2-aminoanthracene: an appropriate amount of 2-aminoanthracene was weighed and dissolved in DMSO to obtain a solution with a concentration of 30 μg/mL. The solution was used after being filtered through 0.22 μm sterile filter membrane.
The Sprague-Dawley rat liver S9 fraction used in this assay was prepared on May 18, 2012 with Batch No.: 20120518. It was stored in liquid nitrogen and the protein concentration is 20.477 mg/mL, which can be used before May 17, 2014. Sterility test and biological activity detection met the requirements of the assay.
Before use, S9 mixture was formulated under sterile conditions. The formulated volume was determined by operator according to the requirements of the assay. Other solvents were formulated in accordance with the standard operating procedures of the Centre.
0.1 mL test article or control drug solution, 0.5 mL S9 mixture or PBS (pH7.4), and 2.0 mL top medium (containing about 0.05 mM histidine, about 0.05 mM biotin, about 0.6% agar, and about 0.5% NaCl) in sequence, and 0.1 mL bacteria culture solution finally were added into glass test tubes (10 mL). The mixture was rapidly mixed uniformly on a vortex mixer and poured into the surface of the bottom medium. The top medium was spread evenly over the surface of the basal medium by slight rotation.
The plates were placed on a horizontal table until the medium were solidified. Then the plates were inverted and cultured at 37° C. for 48 h (except for the TA102 strain, which was cultured for 72 h). The plates were withdrawn to count the number of visible revertant colonies per plate. The precipitation phenomenon of the test samples was observed when loading and at the end of culture. Three plates were tested for each group under activation and non-activation conditions, respectively.
If the results meet the following one or two criteria, it would be assessed as positive.

T1 sequence (P00533 25-1210 L858R): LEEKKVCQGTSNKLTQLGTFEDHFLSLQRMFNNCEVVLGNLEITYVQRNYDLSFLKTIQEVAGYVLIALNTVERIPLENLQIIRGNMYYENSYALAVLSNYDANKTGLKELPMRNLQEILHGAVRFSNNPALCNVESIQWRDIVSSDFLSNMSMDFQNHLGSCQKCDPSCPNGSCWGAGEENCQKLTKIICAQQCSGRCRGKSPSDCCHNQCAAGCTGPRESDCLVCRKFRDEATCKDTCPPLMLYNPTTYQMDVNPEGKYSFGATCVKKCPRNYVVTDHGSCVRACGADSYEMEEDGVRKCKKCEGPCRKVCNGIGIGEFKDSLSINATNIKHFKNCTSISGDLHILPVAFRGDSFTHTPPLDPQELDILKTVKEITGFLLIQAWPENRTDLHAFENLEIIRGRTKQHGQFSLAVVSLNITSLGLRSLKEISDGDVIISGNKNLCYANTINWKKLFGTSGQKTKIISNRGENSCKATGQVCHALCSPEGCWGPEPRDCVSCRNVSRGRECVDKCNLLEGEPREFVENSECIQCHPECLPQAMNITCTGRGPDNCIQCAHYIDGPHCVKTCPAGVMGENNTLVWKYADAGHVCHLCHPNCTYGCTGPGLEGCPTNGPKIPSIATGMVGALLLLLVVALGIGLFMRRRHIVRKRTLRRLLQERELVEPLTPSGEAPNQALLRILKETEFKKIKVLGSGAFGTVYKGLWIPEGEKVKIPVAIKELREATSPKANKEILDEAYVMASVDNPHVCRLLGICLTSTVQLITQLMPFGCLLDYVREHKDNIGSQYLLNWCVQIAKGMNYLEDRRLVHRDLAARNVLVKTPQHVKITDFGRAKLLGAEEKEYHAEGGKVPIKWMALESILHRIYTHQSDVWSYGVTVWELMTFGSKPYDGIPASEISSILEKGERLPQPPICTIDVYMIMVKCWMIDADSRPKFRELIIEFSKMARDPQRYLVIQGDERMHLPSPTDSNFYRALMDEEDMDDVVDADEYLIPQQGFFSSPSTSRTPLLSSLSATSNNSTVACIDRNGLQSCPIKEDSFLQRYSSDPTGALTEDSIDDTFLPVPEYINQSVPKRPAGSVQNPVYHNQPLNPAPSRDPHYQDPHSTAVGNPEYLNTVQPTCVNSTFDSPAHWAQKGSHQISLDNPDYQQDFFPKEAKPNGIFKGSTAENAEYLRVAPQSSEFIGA

Compound	IC50 (EGFR (L858R))	IC50 (EGFR (L858R/T790M))	IC50 [1]	mutagenicity on TA102 strain [2]	mutagenicity on TA97 strain [2]	mutagenicity on TA98, TA100 and TA1535 strains [2]	IC50 ([1]; Homo sapiens, HCC827, 72 h)
COCCOc1cc2ncnc(Nc3ccc(F)c(Cl)c3)c2cc1NC(=O)C=C1CCN(CCOC)CC1.CS(=O)(=O)O [Compound 3, N-[4-(3-chloro-4-fluorophenylamino)-7-(2-methoxyethoxy)quinazolin-6-yl]-2-[1-(2-methoxyethyl)piperidin-4-ylidene]acetamide dimethylsulfonate]	0.45 nM	235 nM	10 nM	no mutagenicity	no mutagenicity	no mutagenicity	–
COCCOc1cc2ncnc(Nc3ccc(F)c(Cl)c3)c2cc1NC(=O)C=C1CCN(CCOC)CC1 [Compound 1, N-[4-(3-chloro-4-fluorophenylamino)-7-(2-methoxyethoxy)quinazolin-6-yl]-2-[1-(2-methoxyethyl)piperidin-4-ylidene]acetamide]	0.4 nM	266 nM	–	no mutagenicity	no mutagenicity	no mutagenicity	8 nM
